Source: publication PMC9452538, “The antimicrobial peptide LI14 combats multidrug-resistant bacterial infections” (Communications Biology, 2022)
In brackets after ≈: the same amount, converted by molar mass. Like-named read-outs stand apart in the source and are kept apart here. Peptide text beside a SMILES is read from it.

Legend:
P. aeruginosa PA14 = assay: microbe, parasite or virus in culture; type: cell-based, Pseudomonas aeruginosa; conditions: PA14
Method: (§1) An antimicrobial activity study was conducted on all peptides against a panel of laboratory bacteria, including ATCC source and clinical isolates with resistance determinants. According to CLSI2021 guidelines, we tested the minimum inhibitory concentrations (MICs) of peptides using standard broth micro-dilutions. Briefly, bacteria grown to exponential phase were diluted in 1:1000 to MHB, subsequently, equivalent amounts of bacterial suspension (1.5 × 10^6 CFUs/mL) were mixed with different concentrations of peptides in a sterilized 96-well microtiter plate (Corning).

[1] = system: P. cibarius HNCF44W (blaNDM-1 + tet(X6)); assay: organism not typed; type: cell-based
Method: as §1

[2] = system: S. enteritidis ATCC 13076; assay: microbe, parasite or virus in culture; type: cell-based; conditions: ATCC 13076
Method: as §1

[3] = system: E. faecalis A4 (VRE, VanA); assay: microbe, parasite or virus in culture; type: cell-based; conditions: A4 (VRE, VanA)
Method: as §1

E. faecalis 1F-1 = assay: microbe, parasite or virus in culture; type: cell-based; conditions: 1F-1
Method: as §1

MRSA T144 [4] = assay: Galleria mellonella infection model; type: in vivo; conditions: MRSA T144 infected G. mellonella; 50 mg/kg of LI14 at 1 h after infection; 7 days; n = 8
Method: (§2) Galleria mellonella larvae (supplied by Huiyude Biotech Company, Tianjin, China) were separated into six groups (n = 8 biologically independent animals per group) and infection models by injecting MRSA T144 and E. coli B2 cultures, respectively (10 µL, 1.0 × 10^5 CFUs per larvae) into the right posterior gastropoda[42],[48]. The infected larvae were treated by giving LI14 peptide (10, 20, 50 mg/kg), ampicillin/rifampicin (10 mg/kg) or a mixture of LI14 with ampicillin/rifampicin (10 + 10 mg/kg) in the left posterior gastropoda after 1 h infection, with the PBS injection group serving as a control treatment. Within 7 days, survival rates of Galleria mellonella larvae were inspected and recorded.

E. coli B2 [5] = assay: Galleria mellonella infection model; type: in vivo; conditions: E. coli B2 infected G. mellonella; 50 mg/kg of LI14 at 1 h after infection; 7 days; n = 8
Method: as §2

MRSA 1518 = assay: microbe, parasite or virus in culture; type: cell-based, Staphylococcus aureus; conditions: 1518
Method: as §1

MRSA 1530 = assay: microbe, parasite or virus in culture; type: cell-based, Staphylococcus aureus; conditions: 1530
Method: as §1

[6] = system: K. pneumoniae D120 (mcr-8); assay: microbe, parasite or virus in culture; type: cell-based, Klebsiella pneumoniae; conditions: D120 (mcr-8)
Method: as §1

[7] = system: K. pneumoniae ATCC 700603; assay: microbe, parasite or virus in culture; type: cell-based, Klebsiella pneumoniae; conditions: ATCC 700603
Method: as §1

MRSA T144 or E. coli B2 = assay: Rat skin wound infection model; type: in vivo, rats; conditions: MRSA T144 or E. coli B2 infected skin wound; LI14 5 or 10 μg topically; 8 days; n = 4
Method: The rats (n = 4 biologically independent animals per group) were anesthetized and a 2 cm wound model was constructed on their back. Then, 100 μL of MRSA T144 or E. coli B2 cultures were dropped on the wounds (10^6 CFUs per mouse), respectively. At 1 h post-infection, 100 μL of LI14 peptide (5 or 10 μg), or the combination of LI14 peptide with ampicillin/rifampicin (5 + 5 μg) were gently inoculated over the scar with a pipette tip, respectively. Wound size was recorded for 8 days, and on the 8th day, the rats were euthanized, and wound tissue was removed aseptically to measure CFUs and for following hematoxylin and eosin (H&E) staining.
(a-d) Mouse skin wound infection models by MRSA T144 (n = 4 biologically independent animals per group). a Photographs of wounds treated with LI14 (5 μg and 10 μg) or in combination with ampicillin (5 + 5 μg) for 0, 4 and 8 days (scale bar, 1 cm). (b) The wound size at 0th, 4th and 8th day after infection by MRSA T144. (c) The subeschar bacterial colonies at 8th day. (d) H.E. staining for the histological change of skin wound at 8th day (scale bar, […]
(e-h) Mouse skin wound infection models by E. coli B2 (n = 4 biologically independent animals per group). (e) Photographs of wounds treated with LI14 (5 μg and 10 μg) or in combination with rifampicin for (5 + 5 μg) for 0, 4 and 8 days (scale bar, 1 cm). […]

MRSA T144 [8] = type: cell-based, Staphylococcus aureus; conditions: MRSA T144
Method: (§3) MRSA T144 and E. coli B2 in the exponential growth phase were incubated with LI14 peptide supplemented with 10 mM Na^+, K^+, Mg^2+, 10% Dulbecco’s modified Eagle medium (DMEM), and 10% fetal bovine serum (FBS) for 16–18 h. The stability of LI14 was evaluated by the change of its antibacterial activity under different conditions.
(§4) LI14 were preincubated for 1 h at various temperatures (40–121 °C), pH (2–12), and proteases (pepsin, trypsin, and papain, final concentration 1 mg/mL). […] Following the incubation with the proteases, the leftover protease was precipitated with acetonitrile and removed by centrifugation at 3000 × g, followed by a MIC test.
(§5) Supplementary Table 4 Thermal, pH, salts and protease stability of AMPs against
(§6) MRSA T144 and E. coli B2 (MIC, μg/mL).
(§7) Treatment MRSA T144 E. coli B2

E. coli B2 [9] = type: cell-based, Escherichia coli; conditions: E. coli B2
Method: as §3, §4, §5, §6, §7

[10] = peptide preincubated 1 h at 40℃
[11] = peptide preincubated 1 h at 60℃
[12] = peptide preincubated 1 h at 80℃
[13] = peptide preincubated 1 h at pH 8, readjusted to pH 7.2
[14] = peptide preincubated 1 h at pH 12, readjusted to pH 7.2

Molecule `CC[C@H](C)[C@H](NC(=O)[C@H](CCCNC(=N)N)NC(=O)[C@H](CS)NC(=O)[C@H](CC(C)C)NC(=O)[C@H](CCCCN)NC(=O)[C@H](CCCCN)NC(=O)[C@H](CC(C)C)NC(=O)[C@@H](NC(=O)[C@H](CCCNC(=N)N)NC(=O)[C@H](CS)NC(=O)[C@H](CC(C)C)NC(=O)[C@H](CCCCN)NC(=O)[C@H](CCCCN)NC(=O)[C@@H](N)CC(C)C)[C@@H](C)CC)C(N)=O` [LI14] (H-LKKLCRILKKLCRI-NH2) has an MIC (P. aeruginosa PA14) of 16 µg/mL (≈ 9.26 µM), an MIC [1] of 8 µg/mL (≈ 4.63 µM) and an MIC [2] of 8 µg/mL (≈ 4.63 µM). For the same molecule, the MIC [3] was 8 µg/mL (≈ 4.63 µM), the MIC (E. faecalis 1F-1) was 64 µg/mL (≈ 37.1 µM) and the “Survival rate of larvae” value (MRSA T144 [4]) was 100%. The “Survival rate of larvae” value (E. coli B2 [5]) was 75%, the MIC (MRSA 1518) was 64 µg/mL (≈ 37.1 µM) and the MIC (MRSA 1530) was 64 µg/mL (≈ 37.1 µM). The MIC [6] was 32 µg/mL (≈ 18.5 µM), the MIC [7] was 32 µg/mL (≈ 18.5 µM) and the “Wound closure and number of colonies” value (MRSA T144 or E. coli B2) was “distinctly improved wound closure and decreased the number of colonies”. For the same molecule, the MIC (MRSA T144 [8]; Control) was 4 µg/mL (≈ 2.32 µM), the MIC (MRSA T144 [8]; [10]) was 4 µg/mL (≈ 2.32 µM) and the MIC (MRSA T144 [8]; [11]) was 4 µg/mL (≈ 2.32 µM). The MIC (MRSA T144 [8]; [12]) was 4 µg/mL (≈ 2.32 µM), the MIC (MRSA T144 [8]; [13]) was 4 µg/mL (≈ 2.32 µM) and the MIC (MRSA T144 [8]; [14]) was 4 µg/mL (≈ 2.32 µM). The MIC (MRSA T144 [8]; peptide preincubated 1 h with Pepsin 1 mg/mL) was 4 µg/mL (≈ 2.32 µM), the MIC (E. coli B2 [9]; Control) was 4 µg/mL (≈ 2.32 µM) and the MIC (E. coli B2 [9]; KCl 10 mM) was 4 µg/mL (≈ 2.32 µM). It also gave an MIC (E. coli B2 [9]; NaCl 10 mM) of 4 µg/mL (≈ 2.32 µM), an MIC (E. coli B2 [9]; Serum (10%), fetal bovine serum) of 4 µg/mL (≈ 2.32 µM) and an MIC (E. coli B2 [9]; [10]) of 4 µg/mL (≈ 2.32 µM). For the same molecule, the MIC (E. coli B2 [9]; [11]) was 4 µg/mL (≈ 2.32 µM), the MIC (E. coli B2 [9]; [12]) was 4 µg/mL (≈ 2.32 µM) and the MIC (E. coli B2 [9]; peptide preincubated 1 h at 121℃) was 4 µg/mL (≈ 2.32 µM). It also gave an MIC (E. coli B2 [9]; peptide preincubated 1 h at pH 2, readjusted to pH 7.2) of 4 µg/mL (≈ 2.32 µM), an MIC (E. coli B2 [9]; peptide preincubated 1 h at pH 4, readjusted to pH 7.2) of 4 µg/mL (≈ 2.32 µM) and an MIC (E. coli B2 [9]; peptide preincubated 1 h at pH 6, readjusted to pH 7.2) of 4 µg/mL (≈ 2.32 µM). The MIC (E. coli B2 [9]; [13]) was 4 µg/mL (≈ 2.32 µM), the MIC (E. coli B2 [9]; peptide preincubated 1 h at pH 10, readjusted to pH 7.2) was 4 µg/mL (≈ 2.32 µM) and the MIC (E. coli B2 [9]; [14]) was 4 µg/mL (≈ 2.32 µM).
